The values below come from ChEMBL document CHEMBL1201862, “PubChem BioAssay data set” (2004).

Activity calls are given as the source filed them. Where only a bound is given, the exact number is not on record here.

The AC50 is the midpoint of the concentration-response curve, whichever way the signal moves. As a reminder, the IC50 is the midpoint of a concentration-inhibition curve. Broadly, the Ki is a dissociation constant, usually derived from enzyme kinetics or from competition with a known ligand. The EC50 is the midpoint of the concentration-response curve.

Assay [1] addresses T1, Caspase-6 (Homo sapiens, UniProt P55212).
T1 sequence (P55212 whole entry): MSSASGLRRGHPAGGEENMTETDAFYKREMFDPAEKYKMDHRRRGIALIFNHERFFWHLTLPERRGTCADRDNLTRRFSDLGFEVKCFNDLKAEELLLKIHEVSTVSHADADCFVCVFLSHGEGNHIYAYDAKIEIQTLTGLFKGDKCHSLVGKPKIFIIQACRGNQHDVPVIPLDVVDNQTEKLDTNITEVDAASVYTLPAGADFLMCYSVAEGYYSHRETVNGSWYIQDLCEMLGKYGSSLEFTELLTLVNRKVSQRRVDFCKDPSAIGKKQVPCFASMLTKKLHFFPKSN
Put plainly: inhibition of CASP6 peptide cleavage – biochemical, VEID-R110 fluorescence, cherry-pick, dose response (AID 720632).

Assay [2] has as its target Genome polyprotein (dengue virus type 2, UniProt P29990). Put plainly: flavivirus cap methylation enzyme inhibition – biochemical, confirmation dose response, primary screen (AID 588689). The assay is classed as functional.
Assay [3] addresses High affinity nerve growth factor receptor (Homo sapiens, UniProt P04629). The format is functional.
For assay [4], the target named is Calcium/calmodulin-dependent protein kinase type II subunit gamma (Homo sapiens, UniProt Q13555). The format is functional.
Sequence of Calcium/calmodulin-dependent protein kinase type II subunit gamma (Q13555 whole entry): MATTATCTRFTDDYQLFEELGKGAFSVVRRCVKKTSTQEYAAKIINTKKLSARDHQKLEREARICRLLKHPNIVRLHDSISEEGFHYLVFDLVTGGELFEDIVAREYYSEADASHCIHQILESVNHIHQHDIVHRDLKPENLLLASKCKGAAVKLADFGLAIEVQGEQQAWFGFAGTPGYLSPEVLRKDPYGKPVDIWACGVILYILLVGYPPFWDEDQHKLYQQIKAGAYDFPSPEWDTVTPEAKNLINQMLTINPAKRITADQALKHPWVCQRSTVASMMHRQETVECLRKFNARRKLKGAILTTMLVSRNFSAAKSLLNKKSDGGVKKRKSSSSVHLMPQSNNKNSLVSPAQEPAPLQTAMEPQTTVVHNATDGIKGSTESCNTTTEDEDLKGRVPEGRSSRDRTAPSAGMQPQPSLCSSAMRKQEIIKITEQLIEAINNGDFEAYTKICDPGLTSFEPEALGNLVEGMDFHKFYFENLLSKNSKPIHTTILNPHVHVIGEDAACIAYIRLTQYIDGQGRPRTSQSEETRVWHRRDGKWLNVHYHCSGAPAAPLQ
Assay [5] has as its target Mitogen-activated protein kinase 9 (Homo sapiens, UniProt P45984). The assay is classed as functional.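 Note: value from a kinome panel profiling assay, MAPK9 panel entry.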
Assay [6] has as its target ALK tyrosine kinase receptor (Homo sapiens, UniProt Q9UM73). The format is functional.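 Note: ALK tested as one member of a kinase panel screen.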
Assay [7] deals with Receptor-type tyrosine-protein kinase FLT3 (Homo sapiens, UniProt P36888). The format is functional.
For assay [8], the target named is Tyrosine-protein kinase FRK (Homo sapiens, UniProt P42685). The format is functional.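 Note: FRK tested as one member of a kinome panel.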
In assay [9] the target is Casein kinase I isoform delta (Homo sapiens, UniProt P48730). The assay is classed as functional.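 Note: measured as one member (CSNK1D) of a kinome panel.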
Sequence of Casein kinase I isoform delta (P48730 whole entry, canonical isoform): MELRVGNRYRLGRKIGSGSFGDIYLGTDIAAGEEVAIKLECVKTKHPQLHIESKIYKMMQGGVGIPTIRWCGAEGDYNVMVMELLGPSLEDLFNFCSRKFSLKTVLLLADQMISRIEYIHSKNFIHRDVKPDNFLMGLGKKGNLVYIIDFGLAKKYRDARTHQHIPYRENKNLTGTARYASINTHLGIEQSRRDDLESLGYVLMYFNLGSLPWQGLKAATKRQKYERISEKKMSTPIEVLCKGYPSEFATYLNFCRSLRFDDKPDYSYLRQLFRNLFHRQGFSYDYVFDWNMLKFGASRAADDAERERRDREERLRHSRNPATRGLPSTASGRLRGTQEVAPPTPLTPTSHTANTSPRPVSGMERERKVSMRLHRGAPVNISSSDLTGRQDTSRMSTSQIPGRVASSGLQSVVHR
Assay [10] addresses Dual specificity mitogen-activated protein kinase kinase 1 (Homo sapiens, UniProt Q02750). Put plainly: Navigating the Kinome. Panel member name: MAP2K1. The format is functional.
Assay [11] concerns the target Tyrosine-protein kinase ITK/TSK (Homo sapiens, UniProt Q08881). The format is functional.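 Note: affinity for ITK measured as one member of a broad kinase panel profiling binding across the kinome.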
For assay [12], the target named is Interleukin-1 receptor-associated kinase 4 (Homo sapiens, UniProt Q9NWZ3). The assay is classed as functional.
Assay [13] has as its target Dual specificity tyrosine-phosphorylation-regulated kinase 1B (Homo sapiens, UniProt Q9Y463). The assay is described as follows: Navigating the Kinome. Panel member name: DYRK1B. The format is functional.
Assay [14] concerns the target Leukocyte tyrosine kinase receptor (Homo sapiens, UniProt P29376). Put plainly: Navigating the Kinome. Panel member name: LTK. The assay is classed as functional.
For assay [15], the target named is Mitogen-activated protein kinase kinase kinase 20 (Homo sapiens, UniProt Q9NYL2). The assay is classed as functional.
Assay [16] addresses Mitogen-activated protein kinase kinase kinase kinase 4 (Homo sapiens, UniProt O95819). The format is functional.
For assay [17], the target named is STE20-like serine/threonine-protein kinase (Homo sapiens, UniProt Q9H2G2). The format is functional.
Sequence of STE20-like serine/threonine-protein kinase (Q9H2G2 whole entry): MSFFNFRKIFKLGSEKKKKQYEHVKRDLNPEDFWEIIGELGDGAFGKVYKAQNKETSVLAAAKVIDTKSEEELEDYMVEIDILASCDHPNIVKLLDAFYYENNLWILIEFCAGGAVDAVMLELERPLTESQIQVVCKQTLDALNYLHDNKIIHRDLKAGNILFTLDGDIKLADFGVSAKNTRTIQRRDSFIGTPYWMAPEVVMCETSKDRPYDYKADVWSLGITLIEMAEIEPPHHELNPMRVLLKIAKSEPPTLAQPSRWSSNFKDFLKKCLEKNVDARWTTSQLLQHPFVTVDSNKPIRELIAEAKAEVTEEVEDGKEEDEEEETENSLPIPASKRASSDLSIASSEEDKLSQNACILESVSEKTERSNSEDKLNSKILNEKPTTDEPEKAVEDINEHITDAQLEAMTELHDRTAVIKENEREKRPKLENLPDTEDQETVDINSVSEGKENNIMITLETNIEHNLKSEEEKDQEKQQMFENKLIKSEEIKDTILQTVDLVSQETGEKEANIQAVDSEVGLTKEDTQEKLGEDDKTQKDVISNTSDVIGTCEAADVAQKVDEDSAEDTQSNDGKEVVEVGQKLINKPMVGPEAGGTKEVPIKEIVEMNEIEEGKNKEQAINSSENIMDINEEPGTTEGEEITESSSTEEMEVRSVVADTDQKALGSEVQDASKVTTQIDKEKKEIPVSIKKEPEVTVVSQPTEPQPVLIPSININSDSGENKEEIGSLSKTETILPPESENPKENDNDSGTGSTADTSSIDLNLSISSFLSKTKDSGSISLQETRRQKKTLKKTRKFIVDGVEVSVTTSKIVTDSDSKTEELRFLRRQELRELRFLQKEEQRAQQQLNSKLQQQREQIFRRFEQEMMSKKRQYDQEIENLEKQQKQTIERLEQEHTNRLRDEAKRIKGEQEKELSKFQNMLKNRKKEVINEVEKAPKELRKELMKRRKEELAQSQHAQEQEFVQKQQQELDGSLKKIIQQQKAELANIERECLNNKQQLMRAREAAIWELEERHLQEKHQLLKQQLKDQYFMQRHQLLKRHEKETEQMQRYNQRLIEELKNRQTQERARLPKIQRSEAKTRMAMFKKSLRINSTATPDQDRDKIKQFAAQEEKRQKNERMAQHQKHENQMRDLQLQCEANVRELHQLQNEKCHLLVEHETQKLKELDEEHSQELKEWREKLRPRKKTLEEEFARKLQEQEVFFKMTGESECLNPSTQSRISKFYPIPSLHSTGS
The target in assay [18] is Vascular endothelial growth factor receptor 1 (Homo sapiens, UniProt P17948). The format is functional.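 Note: measured within a kinome-wide profiling panel, FLT1 as the panel member.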
In assay [19] the target is Tyrosine-protein kinase Lyn (Homo sapiens, UniProt P07948). The assay is classed as functional.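 Note: lyn as one member of a kinase panel.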
Assay [20] has as its target Serine/threonine-protein kinase DCLK1 (Homo sapiens, UniProt O15075). The format is functional.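 Note: affinity for DCLK1 (listed as DCAMKL1) measured as one member of a kinome-wide kinase profiling panel.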
Assay [21] deals with Serine/threonine-protein kinase PLK3 (Homo sapiens, UniProt Q9H4B4). The assay is classed as functional.
Assay [22] has as its target Serine/threonine-protein kinase pim-1 (Homo sapiens, UniProt P11309). The assay is classed as functional.
In assay [23] the target is Insulin-like growth factor 1 receptor (Homo sapiens, UniProt P08069). Put plainly: Navigating the Kinome. Panel member name: IGF1R. The assay is classed as functional.
Assay [24] deals with BDNF/NT-3 growth factors receptor (Homo sapiens, UniProt Q16620). The assay is classed as functional.
Sequence of BDNF/NT-3 growth factors receptor (Q16620 whole entry): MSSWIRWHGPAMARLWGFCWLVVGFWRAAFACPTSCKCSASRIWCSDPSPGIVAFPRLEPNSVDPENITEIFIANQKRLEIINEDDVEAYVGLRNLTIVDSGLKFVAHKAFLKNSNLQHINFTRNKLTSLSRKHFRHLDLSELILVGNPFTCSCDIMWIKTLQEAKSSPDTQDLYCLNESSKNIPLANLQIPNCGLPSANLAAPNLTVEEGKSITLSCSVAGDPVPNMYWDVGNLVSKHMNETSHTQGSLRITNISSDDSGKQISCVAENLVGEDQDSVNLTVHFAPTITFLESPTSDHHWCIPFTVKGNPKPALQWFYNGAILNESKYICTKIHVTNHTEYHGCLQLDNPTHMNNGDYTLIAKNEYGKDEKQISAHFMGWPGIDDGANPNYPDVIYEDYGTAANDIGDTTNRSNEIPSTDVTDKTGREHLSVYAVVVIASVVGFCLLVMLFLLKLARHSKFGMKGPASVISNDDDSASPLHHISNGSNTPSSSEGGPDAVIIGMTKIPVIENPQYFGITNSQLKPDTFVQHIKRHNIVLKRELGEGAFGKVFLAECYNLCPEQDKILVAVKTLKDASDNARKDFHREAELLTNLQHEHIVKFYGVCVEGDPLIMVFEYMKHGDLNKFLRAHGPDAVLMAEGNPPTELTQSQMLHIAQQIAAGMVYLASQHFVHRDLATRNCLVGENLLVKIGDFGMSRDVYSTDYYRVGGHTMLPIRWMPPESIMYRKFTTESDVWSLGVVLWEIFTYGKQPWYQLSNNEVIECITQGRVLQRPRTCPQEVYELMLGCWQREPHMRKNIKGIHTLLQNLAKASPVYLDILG
For assay [25], the target named is MAP kinase-interacting serine/threonine-protein kinase 2 (Homo sapiens, UniProt Q9HBH9). The assay is classed as functional.
Assay [26] deals with Megakaryocyte-associated tyrosine-protein kinase (Homo sapiens, UniProt P42679). The assay is classed as functional.
The target of assay [27] is Calcium/calmodulin-dependent protein kinase type II subunit alpha (Homo sapiens, UniProt Q9UQM7). Put plainly: Navigating the Kinome. Panel member name: CAMK2A. The assay is classed as functional.
The target in assay [28] is Serine/threonine-protein kinase pim-3 (Homo sapiens, UniProt Q86V86). The format is functional.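 Note: value obtained as one member of a broad kinase panel profiling effort.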
Assay [29] addresses Ribosomal protein S6 kinase beta-1 (Homo sapiens, UniProt P23443). The assay is classed as functional.
In assay [30] the target is Serine/threonine-protein kinase PAK 4 (Homo sapiens, UniProt O96013). The assay is classed as functional.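 Note: value obtained within a kinome profiling panel in which PAK4 was one of the panel members.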
Sequence of Serine/threonine-protein kinase PAK 4 (O96013 whole entry): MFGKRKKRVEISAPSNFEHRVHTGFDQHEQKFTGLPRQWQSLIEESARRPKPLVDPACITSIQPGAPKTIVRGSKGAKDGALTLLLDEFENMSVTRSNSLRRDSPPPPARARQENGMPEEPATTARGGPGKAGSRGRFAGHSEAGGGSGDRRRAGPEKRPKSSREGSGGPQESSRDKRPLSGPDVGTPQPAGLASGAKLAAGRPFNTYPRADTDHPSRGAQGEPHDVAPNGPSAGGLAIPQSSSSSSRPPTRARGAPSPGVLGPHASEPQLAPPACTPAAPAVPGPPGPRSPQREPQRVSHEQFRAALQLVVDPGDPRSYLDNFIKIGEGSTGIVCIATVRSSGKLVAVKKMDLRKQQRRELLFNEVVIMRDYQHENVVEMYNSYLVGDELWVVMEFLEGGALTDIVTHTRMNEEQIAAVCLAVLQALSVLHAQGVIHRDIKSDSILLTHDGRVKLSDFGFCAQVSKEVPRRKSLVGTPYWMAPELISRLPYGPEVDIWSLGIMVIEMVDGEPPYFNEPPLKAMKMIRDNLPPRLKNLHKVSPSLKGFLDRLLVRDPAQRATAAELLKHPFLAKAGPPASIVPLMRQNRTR
Assay [31] has as its target Dual specificity tyrosine-phosphorylation-regulated kinase 4 (Homo sapiens, UniProt Q9NR20). The format is functional.
The target of assay [32] is Serine/threonine-protein kinase 17A (Homo sapiens, UniProt Q9UEE5). The assay is classed as functional.
Assay [33] concerns the target Aurora kinase A (Homo sapiens, UniProt O14965). The format is functional.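 Note: value from the Navigating the Kinome kinase panel profiling, panel entry STK6.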
Assay [34] deals with Tyrosine-protein kinase JAK2 (Homo sapiens, UniProt O60674). The assay is classed as functional.
In assay [35] the test system is HEK293. The assay is described as follows: EBV LMP1 TES2 canonical NF-kB signalling blockers – cell-based, HEK293, luciferase, cherry-pick, dose response (AID 588343). The format is functional. Conditions: Homo sapiens.
A short description of assay [36]: NIH3T3 cell viability loss – ATP luminescence, mouse fibroblasts, counter-screen, dose response (AID 2010).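 Note: cells exposed to compound for about 90 hours before reading.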 The assay is classed as functional, cell-based.

Sequence of Genome polyprotein (P29990 2492-3391 limits assumed): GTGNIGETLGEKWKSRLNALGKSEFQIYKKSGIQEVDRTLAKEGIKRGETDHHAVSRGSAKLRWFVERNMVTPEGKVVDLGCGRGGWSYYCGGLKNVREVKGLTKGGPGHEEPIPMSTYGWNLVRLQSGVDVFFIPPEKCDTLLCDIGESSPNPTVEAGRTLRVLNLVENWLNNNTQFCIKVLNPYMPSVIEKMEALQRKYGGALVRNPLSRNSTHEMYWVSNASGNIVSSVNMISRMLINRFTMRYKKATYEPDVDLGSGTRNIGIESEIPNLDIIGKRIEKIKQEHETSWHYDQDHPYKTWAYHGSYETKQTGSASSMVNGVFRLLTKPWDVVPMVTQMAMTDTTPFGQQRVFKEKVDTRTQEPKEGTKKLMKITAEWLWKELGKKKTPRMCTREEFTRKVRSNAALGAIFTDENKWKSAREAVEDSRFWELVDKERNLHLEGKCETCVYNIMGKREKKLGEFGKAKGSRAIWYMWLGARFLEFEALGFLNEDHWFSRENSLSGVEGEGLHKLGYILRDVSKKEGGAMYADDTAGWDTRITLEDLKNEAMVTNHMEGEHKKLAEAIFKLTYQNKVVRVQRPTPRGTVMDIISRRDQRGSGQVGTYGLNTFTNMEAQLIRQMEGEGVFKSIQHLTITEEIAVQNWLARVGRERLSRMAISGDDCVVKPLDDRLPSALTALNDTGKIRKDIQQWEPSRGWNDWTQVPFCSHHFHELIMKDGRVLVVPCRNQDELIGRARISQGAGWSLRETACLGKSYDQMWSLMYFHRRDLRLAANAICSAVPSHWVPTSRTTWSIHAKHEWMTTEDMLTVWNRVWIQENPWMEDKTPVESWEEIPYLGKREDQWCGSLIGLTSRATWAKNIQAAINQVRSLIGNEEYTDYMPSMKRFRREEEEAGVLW
Sequence of Serine/threonine-protein kinase pim-1 (P11309 whole entry): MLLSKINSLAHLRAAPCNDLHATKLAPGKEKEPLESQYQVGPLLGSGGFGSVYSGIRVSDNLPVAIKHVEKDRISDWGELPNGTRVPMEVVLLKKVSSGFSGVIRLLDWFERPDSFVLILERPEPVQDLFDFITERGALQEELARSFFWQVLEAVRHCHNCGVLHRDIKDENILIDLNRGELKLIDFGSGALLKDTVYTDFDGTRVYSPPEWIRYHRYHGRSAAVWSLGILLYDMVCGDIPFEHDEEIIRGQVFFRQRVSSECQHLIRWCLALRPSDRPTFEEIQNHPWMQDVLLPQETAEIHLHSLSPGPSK

Consider `CC(C)N(C(=O)Nc1ccc2nsnc2c1)C(C)C`, for which the AC50 in [1] is 5600 nM (active).
As to `NS(=O)(=O)c1ccc(NC2=CC(=O)C(=O)c3ccccc32)cc1`, the concentration for half-maximal inhibition (IC50) in [2] was 39000 nM (active).
`Clc1cc(-c2c[nH]c3ncccc23)nc(NC2CCCCC2)n1`: the Ki is 2000 nM (active) in assay [3]; 501 nM (active) in [4]; 3160 nM (active) in assay [5]; > 3980 nM (inactive) in [6]; > 1000 nM (inactive) in assay [7]; > 2510 nM (inactive) in assay [8]. Further, the Ki was 63.1 nM (active) in assay [9]; 200 nM (active) in assay [10]; 1260 nM (active) in assay [11]; 158 nM (active) in assay [12]; 7.94 nM (active) in [13]; > 2510 nM (inactive) in assay [14]. Further, the Ki in assay [15] is > 7940 nM (inactive); in assay [16] it was 126 nM (active); in assay [17], 6310 nM (active); in assay [18] it was 398 nM (active); in assay [19] it was > 1580 nM (inactive); in assay [20], > 10000 nM (inactive). Also, the Ki in assay [21] is > 7940 nM (inactive); in assay [22] it was > 5010 nM (inactive); in assay [23], > 2000 nM (inactive); in assay [24], 2000 nM (active); in assay [25] it was 79.4 nM (active); in assay [26], > 2000 nM (inactive). Besides, the Ki in [27] is 3160 nM (active); in [28] it was > 7940 nM (inactive); in assay [29], 2510 nM (active); in assay [30], > 2000 nM (inactive); in assay [31] it was 501 nM (active); in assay [32] it was 1000 nM (active). For the same compound, the Ki in assay [33] is > 1580 nM (inactive); in assay [34], > 2510 nM (inactive).
Regarding `O=C(N/N=C/c1ccc(O)cc1O)c1ccc(CN2C(=O)c3cccc4cccc2c34)cc1`, the concentration at half-maximal activity (AC50) in assay [35] was 6460 nM (active).
As for `CCC(=O)NC(c1ccccc1OC)c1ccc2cccnc2c1O` (stereo unspecified), the EC50 in [36] is 1670 nM (active).
